Where a name gives a salt, the structure may show the parent alone. Read-outs that look alike come from different tables or passages of the source.
Tests used:
CCK-B receptor = biological target: T1, CCK-B receptor (Cavia porcellus, UniProt H0VZC5); test: displacement of ^125 I-CCK from guinea pig brain (CCK-B receptor binding); conditions: guinoa pig brain (CCK-B)
T1 construct: guinoa pig brain (CCK-B); from tissue; host or cells: guinea pig brain
T1 sequence (H0VZC5 1-426): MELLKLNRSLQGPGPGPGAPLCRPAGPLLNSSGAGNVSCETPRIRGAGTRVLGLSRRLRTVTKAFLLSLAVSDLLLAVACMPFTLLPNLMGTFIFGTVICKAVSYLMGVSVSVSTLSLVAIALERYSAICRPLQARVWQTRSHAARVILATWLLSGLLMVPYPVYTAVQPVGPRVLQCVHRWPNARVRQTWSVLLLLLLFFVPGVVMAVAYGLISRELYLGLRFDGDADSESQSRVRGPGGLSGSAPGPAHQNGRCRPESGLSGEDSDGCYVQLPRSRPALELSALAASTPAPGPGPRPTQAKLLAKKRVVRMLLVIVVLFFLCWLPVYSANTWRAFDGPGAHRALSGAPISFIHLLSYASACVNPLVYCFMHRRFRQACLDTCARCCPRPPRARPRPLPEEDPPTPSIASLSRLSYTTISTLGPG
Protocol: (§1) The CCK-A and CCK-B antagonising activity of the compounds described herein was evaluated using the assays described in published European patent application no. […] The method essentially involves determining the concentration of the test compound required to displace 50% of the specific ^125 I--CCK from rat pancreas (CCK-A) or guinoa pig brain (CCK-B).

CCK-A receptor = biological target: T2, CCK-A receptor (Rattus norvegicus, UniProt P30551); test: displacement of ^125 I-CCK from rat pancreas (CCK-A receptor binding)
T2 sequence (P30551 1-444): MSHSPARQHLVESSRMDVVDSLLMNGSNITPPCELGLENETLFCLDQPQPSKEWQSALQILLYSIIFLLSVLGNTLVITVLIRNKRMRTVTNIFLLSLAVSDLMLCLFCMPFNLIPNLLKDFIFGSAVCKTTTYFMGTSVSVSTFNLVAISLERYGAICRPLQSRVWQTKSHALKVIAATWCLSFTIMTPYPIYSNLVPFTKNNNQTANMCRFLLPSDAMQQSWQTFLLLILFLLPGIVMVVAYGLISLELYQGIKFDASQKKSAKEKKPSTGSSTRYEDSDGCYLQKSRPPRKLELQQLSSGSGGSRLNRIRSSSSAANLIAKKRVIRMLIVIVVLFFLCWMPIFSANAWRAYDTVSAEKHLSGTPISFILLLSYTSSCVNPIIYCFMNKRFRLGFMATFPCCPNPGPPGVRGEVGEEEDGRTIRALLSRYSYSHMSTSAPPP
Protocol: as §1

[1] = read-out: CCK receptor binding IC50, ^125 I-CCK Brain
[2] = ^125 I-CCK, rat pancreas (CCK-A), read-out: CCK receptor binding IC50, ^125 I-CCK Pancreas

Structure (SMILES) | IC50 (CCK-B receptor; [1]) | IC50 (CCK-A receptor; [2]) | IC50 (CCK-A receptor) | IC50 (CCK-B receptor; CCK receptor binding IC50, ^125 I-CCK Brain)
Cc1cccc(NC(=O)NC2N=C(C3CCC(C)(C)CCN3)c3ccccc3N(C)C2=O)c1 (single isomer, unassigned) [Example 6, N-[2,3-Dihydro-5-(5,5-dimethyl-2,3,4,5,6-hexahydro-1H-azepin-2-yl)-1-methyl-2-oxo-1H-1,4-benzodiazepin-3-yl]-N'-[3-methylphenyl]urea hydrochloride] | 12 nM | – | – | –
CCCN1C(=O)C(NC(=O)Nc2cccc(C)c2)N=C(C2CCCCN2)c2ccccc21 (single isomer, unassigned) [Example 1, N-[2,3-Dihydro-2-oxo-5-(piperidin-2-yl)-1-(1-propyl)-1H-1,4-benzodiazepin-3-yl]-N'-[3-methylphenyl]urea hydrochloride] | 41.8 nM | > 3 µM | – | –
CCCN1C(=O)C(NC(=O)Nc2ccc3c(c2)CCC3)N=C(C2CC(C)(C)CCN2)c2ccccc21 (single isomer, unassigned) [Example 12, N-[2,3-Dihydro-5-(4,4-dimethylpiperidin-2-yl)-2-oxo-1-(1-propyl)-1H, 1,4-benzodiazepin-3-yl-N'-[5-indanyl]urea hydrochloride] | – | – | 3.22 µM | –
CC(C)CN1C(=O)C(NC(=O)Nc2cccc(-c3nnn[nH]3)c2)N=C(C2CCNCC2)c2ccccc21 (centres unmarked) [Example 11, N-[2,3-Dihydro-1-(2-methylpropyl)-2-oxo-5-(piperidin-4-yl)-1H-1,4-benzodiazepin-3-yl]-N'-[3-(tetrazol-5-yl)phenyl]urea, trifluoroacetic acid salt] | 55 nM | > 3 µM | – | –
CCCN1C(=O)C(NC(=O)Nc2cccc(C)c2)N=C(C2CCCCN2)c2ccccc21 (single isomer, unassigned) [Example 2, N-[2,3-Dihydro-2-oxo-5-(piperidin-2-yl)-1-(1-propyl)-1H-1,4,benzodiazepin-3-yl]-N'-[3-methylphenylurea hydrochloride] | 36.4 nM | > 3 µM | – | –
CCCN1C(=O)C(NC(=O)Nc2cccc(C)c2)N=C(C2CCC(C)(C)CCN2C)c2ccccc21 (single isomer, unassigned) [Example 5, N-[2,3-Dihydro-5-(2,3,4,5,6-hexahydro-1,5,5,-trimethyl-1H-azepin-2-yl)-2-oxo-1-(1-propyl)-1H-1,4-benzodiazepin-3-yl]-N'-[3-methylphenyl]urea hydrochloride] | 25.5 nM | – | – | –
Cc1cccc(NC(=O)NC2N=C(C3CCN(C)CC3)c3ccccc3N(CC(C)C)C2=O)c1 (centres unmarked) [Example 10, N-[2,3-Dihydro-5-(N-methylpiperidin-4-yl)-1-(2-methylpropyl)-2-oxo-1H-1,4-benzodiazepin-3-yl]-N'-[3-methylphenyl]urea hydrochloric acid salt] | 240 nM | 2.93 µM | – | –
CN1C(=O)C(NC(=O)Nc2ccc3c(c2)CCC3)N=C(C2CCC(C)(C)CCN2)c2ccccc21 (single isomer, unassigned) [Example 7, N-[2,3-Dihydro-5-(5,5-dimethyl-2,3,4,5,6-hexahydro-1H-azepin-2-yl)-1-methyl-2-oxo-1H-1,4-benzodiazepin-3-yl]-N'-[5-indanyl]urea hydrochloride] | 2.37 nM | 6.49 µM | – | –
Cc1cccc(NC(=O)NC2N=C(C3CCNCC3)c3ccccc3N(CC(C)C)C2=O)c1 (centres unmarked) [Example 9, N-[2,3-Dihydro-1-(2-methylpropyl)-2-oxo-5-(piperidin-4-yl)-1H-1,4-benzodiazepin-3-yl]-N'-[3-methylpheny]urea trifluoroacetic acid salt] | 290 nM | 2.67 µM | – | –
CCCN1C(=O)C(NC(=O)Nc2cccc(C)c2)N=C(C2CC(C)(C)CCN2)c2ccccc21 (single isomer, unassigned) [Example 8, N-[2,3-Dihydro-5-(4,4-dimethylpiperidin-2-yl)-2-oxo-1-(1-propyl)-1H-1,4-benzodiazepin-3-yl]-N'-[3-methylphenyl]urea hydrochloride] | 1.47 nM | – | – | –
CCCN1C(=O)C(NC(=O)Nc2cccc(C)c2)N=C(C2CCCCN2C)c2ccccc21 (single isomer, unassigned) [Example 3, N-[2,3-Dihydro-5-(1-methylpiperidin-2-yl)-2-oxo-1-(1propyl)-1H-1,4-benzodiazepin-3-yl]-N'-[3-methylphenyl]urea hydrochloride] | – | – | – | 53.6 nM

From patent US5521175A, “Benzodiazepine derivatives” (Merck Sharp & Dohme Ltd., priority 1992, dated 1996)
